Data taken from patent publication US9255100B2 (BAYER INTELLECTUAL PROPERTY GMBH, priority 2010, dated 2016).

Target: T1, N-terminally GST-tagged human full length recombinant Mps-1 kinase (Homo sapiens, UniProt P33981)
T1 construct: N-terminally GST-tagged human full length recombinant Mps-1 kinase; purchased Invitrogen, Karslruhe, Germany PV4071
T1 sequence (P33981 1-857): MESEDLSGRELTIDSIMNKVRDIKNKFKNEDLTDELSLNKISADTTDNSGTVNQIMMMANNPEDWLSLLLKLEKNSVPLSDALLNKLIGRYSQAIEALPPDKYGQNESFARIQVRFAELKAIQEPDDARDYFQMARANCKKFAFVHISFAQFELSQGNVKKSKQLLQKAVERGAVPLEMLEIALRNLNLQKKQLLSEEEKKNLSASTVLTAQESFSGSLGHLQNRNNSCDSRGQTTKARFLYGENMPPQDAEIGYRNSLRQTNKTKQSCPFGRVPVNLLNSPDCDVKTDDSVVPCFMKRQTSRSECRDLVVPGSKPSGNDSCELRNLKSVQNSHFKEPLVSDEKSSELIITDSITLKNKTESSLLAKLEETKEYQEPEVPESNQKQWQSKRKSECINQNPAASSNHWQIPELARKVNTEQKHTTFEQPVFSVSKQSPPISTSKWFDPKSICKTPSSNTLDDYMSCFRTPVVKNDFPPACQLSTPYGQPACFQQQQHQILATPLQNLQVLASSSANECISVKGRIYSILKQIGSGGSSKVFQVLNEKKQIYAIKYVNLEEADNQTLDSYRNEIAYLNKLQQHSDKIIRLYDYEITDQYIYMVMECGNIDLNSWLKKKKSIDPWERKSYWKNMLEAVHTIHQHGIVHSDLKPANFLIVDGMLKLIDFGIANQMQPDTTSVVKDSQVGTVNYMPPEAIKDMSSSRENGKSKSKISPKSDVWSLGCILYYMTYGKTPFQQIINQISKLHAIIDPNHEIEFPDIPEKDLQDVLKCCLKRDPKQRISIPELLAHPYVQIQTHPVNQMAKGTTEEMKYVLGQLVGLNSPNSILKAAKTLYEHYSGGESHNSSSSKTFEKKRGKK
Assay: Mps-1 kinase assay (TR-FRET)
Assay type: biochemical
Settings: Mps1 IC50 [nM], 10 μM ATP, 1 μM peptide substrate, 60 min at 22° C.
Method in brief: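 TR-FRET signal between a Europium anti-phospho-Ser/Thr antibody and streptavidin-XLent reported phosphorylation of a biotinylated peptide by GST-tagged full-length Mps-1. Enzyme was near 1 nM final, chosen per lot for linearity.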

Row | SMILES | IC50 [nM]
1 | Cc1cc(-c2cnc3c(NCC4CCSCC4)cc(Sc4ccccc4)nn23)ccc1C(=O)NC1CC1 [Example 284, N-cyclopropyl-2-methyl-4-{6-(phenylsulfanyl)-8-[(tetrahydro-2H-thiopyran-4-ylmethyl)amino]imidazo[1,2-b]pyridazin-3-yl}benzamide] | 0.4
2 | CCNC(=O)c1ccc(-c2cnc3c(NCCN4CCOCC4)cc(Oc4ccccc4C)nn23)cc1C [Example 589, N-ethyl-2-methyl-4-[6-(2-methylphenoxy)-8-{[2-(morpholin-4-yl)ethyl]amino}imidazo[1,2-b]pyridazin-3-yl]benzamide] | 4.3
3 | CNc1cc(Oc2ccc(F)c(F)c2)nn2c(-c3ccc(C(=O)NC4CC4)c(C)c3)cnc12 [Example 529, N-cyclopropyl-4-[6-(3,4-difluorophenoxy)-8-(methylamino)imidazo [1,2-b]pyridazin-3-yl]-2-methylbenzamide] | 0.4
4 | Cc1cc(-c2cnc3c(NCC(C)(C)O)cc(Oc4ccn[nH]4)nn23)ccc1C(=O)NC1CC1 [Example 414, N-cyclopropyl-4-{8-[(2-hydroxy-2-methylpropyl)amino]-6-(1H-pyrazol-5-yloxy)imidazo[1,2-b]pyridazin-3-yl}-2-methylbenzamide] | 6.7
5 | Cc1cc(-c2cnc3c(NCC(C)(C)N)cc(Oc4cccc(F)c4)nn23)ccc1C(=O)NC1CC1 [Example 314, 4-{8-[(2-amino-2-methyl-propyl)amino]-6-(3-fluorophenoxy)imidazo[1,2-b]pyridazin-3-yl}-N-cyclopropyl-2-methyl-benzamide] | 0.2
6 | Cc1cc(-c2cnc3c(NCCC(F)(F)F)cc(Sc4ccc(F)cc4N)nn23)ccc1C(=O)NC1CC1 [Example 417, 4-{6-[(2-amino-4-fluorophenyl)sulfanyl]-8-[(3,3,3-trifluoropropyl)amino]imidazo[1,2-b]pyridazin-3-yl}-N-cyclopropyl-2-methylbenzamide] | 0.2
7 | CC(C)(O)CNc1cc(-c2ccc(F)cc2)nn2c(-c3ccc(C(=S)NC4CC4)cc3)cnc12 [Example 32, N-cyclopropyl-4-{6-(4-fluorophenyl)-8-[(2-hydroxy-2-methylpropyl)amino]imidazo[1,2-b]pyridazin-3-yl}benzenecarbothioamide] | 4.3
8 | CC(C)(O)CNc1cc(-c2ccncc2)nn2c(-c3ccc(-c4cnc(C5CC5)[nH]4)cc3)cnc12 [Example 9, 1-({3-[4-(2-Cyclopropyl-1H-imidazol-5-yl)phenyl]-6-(pyridin-4-yl)imidazo[1,2-b]pyridazin-8-yl}amino)-2-methylpropan-2-ol] | 25
9 | Cc1cc(-c2cnc3c(NCC(C)(C)O)cc(-c4ccccc4)nn23)ccc1C(=O)NC1CC1 [Example 12, N-cyclopropyl-4-{8-[(2-hydroxy-2-methylpropyl)amino]-6-phenylimidazo[1,2-b]pyridazin-3-yl}-2-methylbenzamide] | 3.2
10 | CNC(=O)c1ccc(-c2cnc3c(NCCN4CCOCC4)cc(Oc4ccc(F)c(F)c4)nn23)cc1C [Example 562, 4-[6-(3,4-difluorophenoxy)-8-{[2-(morpholin-4-yl)ethyl]amino}imidazo[1,2-b]pyridazin-3-yl]-N,2-dimethylbenzamide] | 2.7
11 | Cc1cc(-c2cnc3c(NCC4CN(C)CCO4)cc(Sc4ccccc4)nn23)ccc1C(=O)NC1CC1 (racemic) [Example 56, (RS)—N-cyclopropyl-2-methyl-4-[8-{[(4-methylmorpholin-2-yl)methyl]amino}-6-(phenylsulfanyl)imidazo[1,2-b]pyridazin-3-yl]benzamide] | < 1
12 | Cc1cc(-c2cnc3c(NCC4CCOCC4)cc(-c4ccccc4CO)nn23)ccc1C(=O)NC1CC1 [Example 346, N-cyclopropyl-4-{6-[2-(hydroxy-methyl)phenyl]-8-[(tetrahydro-2H-pyran-4-ylmethyl)amino]imidazo[1,2-b]pyridazin-3-yl}-2-methyl-benzamide] | 1.6
13 | Cc1cc(-c2cnc3c(NCCC(F)(F)F)cc(Oc4cccc5c4CCN(C)C5)nn23)ccc1C(=O)NC1CC1 [Example 469, N-cyclopropyl-2-methyl-4-{6-[(2-methyl-1,2,3,4-tetrahydroisoquinolin-5-yl)oxy]-8-[(3,3,3-trifluoropropyl)amino]imidazo[1,2-b]pyridazin-3-yl}benzamide] | 1.7
14 | COc1cc(C(=O)NC2CC2)ccc1-c1cnc2c(NCC(C)(C)O)cc(Sc3cccc(F)c3)nn12 [Example 62B, N-cyclopropyl-4-{6-[(3-fluorophenyl)sulfanyl]-8-[(2-hydroxy-2-methylpropyl)amino]imidazo[1,2-b]pyridazin-3-yl}-3-methoxybenzamide] | 11.5
15 | CNC(=O)c1ccc(-c2cnc3c(NCC(F)F)cc(Oc4ccc(OC)cc4F)nn23)cc1C [Example 580, 4-{8-[(2,2-difluoroethyl)amino]-6-(2-fluoro-4-meth-oxyphenoxy)imidazo[1,2-b]pyridazin-3-yl}-N,2-dimethylbenzamide] | < 1
16 | Cc1ccc(F)cc1Oc1cc(NCC2CNC2)c2ncc(-c3ccc(C(=O)NC4CC4)c(C)c3)n2n1 [Example 545, 4-{8-[(azetidin-3-ylmethyl)amino]-6-(5-fluoro-2-methylphenoxy)imidazo[1,2-b]pyridazin-3-yl}-N-cyclopropyl-2-methylbenzamide] | 0.1
17 | Cc1cc(-c2cnc3c(NCC(C)(C)N(C)C)cc(Oc4cccc(F)c4)nn23)ccc1C(=O)NC1CC1 [Example 497, N-cyclopropyl-4-[8-{[2-(dimethyl-amino)-2-methylpropyl]amino}-6-(3-fluorophenoxy)imidazo [1,2-b]pyridazin-3-yl]-2-methyl-benzamide] | 0.2
18 | COc1ccccc1Oc1cc(NCCC(F)(F)F)c2ncc(-c3ccc(C(=O)NC4CC4)c(C)c3)n2n1 [Example 223, N-cyclopropyl-4-{6-(2-methoxyphenoxy)-8-[(3,3,3-trifluoropropyl)amino]imidazo[1,2-b]pyridazin-3-yl}-2-methylbenzamide] | 0.2
19 | Cc1cc(-c2cnc3c(NCC(C)(C)O)cc(-c4ccc(F)c(CO)c4)nn23)ccc1C(=O)NC1CC1 [Example 165, N-cyclopropyl-4-{6-[4-fluoro-3-(hydroxymethyl)phenyl]-8-[(2-hydroxy-2-methylpropyl)amino]imidazo[1,2-b]pyridazin-3-yl}-2-methylbenzamide] | 1.8
20 | CC(=O)Nc1ccccc1-c1cc(NCC(C)C)c2ncc(-c3ccc(C(=O)NC4CC4)cc3)n2n1 [Example 107, 4-{6-[2-(Acetylamino)phenyl]-8-[(2-methylpropyl)amino]imidazo[1,2-b]pyridazin-3-yl}-N-cyclopropylbenzamide] | 35.5
21 | Cc1cc(-c2cnc3c(NCC4CCSCC4)cc(Oc4cccc(F)c4)nn23)ccc1C(=O)NC1CC1 [Example 281, N-cyclopropyl-4-{6-(3-fluorophenoxy)-8-[(tetrahydro-2H-thiopyran-4-ylmethyl)amino]imidazo[1,2-b]pyridazin-3-yl}-2-methylbenzamide] | 0.3
22 | Cc1cc(-c2cnc3c(NCc4nnn[nH]4)cc(Oc4cccc(F)c4)nn23)ccc1C(=O)NC1CC1 [Example 496, N-cyclopropyl-4-{6-(3-fluoro-phenoxy)-8-[(1H-tetrazol-5-ylmethyl)amino]imidazo[1,2-b]pyridazin-3-yl}-2-methylbenzamide] | 8.9
23 | Cc1cc(F)cc(Sc2cc(NCCC(F)(F)F)c3ncc(-c4ccc(C(=O)NC5CC5)c(C)c4)n3n2)c1 [Example 79, N-cyclopropyl-4-{6-[(3-fluoro-5-methylphenyl)sulfanyl]-8-[(3,3,3-trifluoropropyl)amino]imidazo[1,2-b]pyridazin-3-yl}-2-methylbenzamide] | 0.7
24 | Cc1cc(-c2cnc3c(NCC(C)(C)O)cc(Sc4cccs4)nn23)ccc1C(=O)NC1CC1 [Example 261, N-cyclopropyl-4-{8-[(2-hydroxy-2-methylpropyl)amino]-6-(2-thienylsulfanyl)imidazo[1,2-b]pyridazin-3-yl}-2-methylbenzamide] | 0.5
25 | CC(C)CNc1cc(-c2cc3ccccc3o2)nn2c(-c3ccc(C(=O)NC4CC4)cc3)cnc12 [Example 127, 4-{6-(1-Benzofuran-2-yl)-8-[(2-methylpropyl)amino]imidazo[1,2-b]pyridazin-3-yl}-N-cyclopropylbenzamide] | 40
26 | CC(C)CNc1cc(-c2cccc(C(N)=O)c2)nn2c(-c3ccc(C(=O)NC4CC4)cc3)cnc12 [Example 114, 4-{6-(3-Carbamoylphenyl)-8-[(2-methylpropyl)amino]imidazo[1,2-b]pyridazin-3-yl}-N-cyclopropylbenzamide] | < 1
